In patent US9073851B2, “Compositions and methods for treating cancer” (Board of Regents, The University of Texas System, priority 2011, dated 2015) one finds tumor growth data, which are given here for 1 compound.

For the test, the system named is MDA-MB-231 tumors. The experiment in a line: Orthotopic MDA-MB-231 xenograft breast cancer model. Type of test: in vivo, nude mice. The settings on record: DOPC nanoliposomal, i.v., 5.8 mg/kg twice weekly (4 weeks). How it is done: FIG. 3. New role for triptan derivatives targeting the 5-HT1B receptor as a therapeutic modality for breast cancer. (A). […] Treatments, twice per week (4 weeks) were safe and effective. Methods: Phospholipid dioleoylphosphatidylcholine (DOPC) and triptan 5-NT were mixed in tertiary butanol at a lipid:5-NT ratio of 10:1 (w/w). Tween 20 was added at a ratio of 1:20 ratio (w/w) and the mixture lyophilized overnight. The powder was reconstituted in saline and sonicated for one minute. The liposome formulation was injected (100 μl) into the tail vein. (B). 5-NT induces apoptotic cell death of ER(+) MCF-7 cells. (C). […] (D). […] (E). The 5-HT1B receptor is over-expressed in triple negative highly aggressive, and metastatic breast cancer cells as well as drug resistant (i.e. tamoxifen and doxorubicin) breast cancer cells. Methods: Blots were visualized with a FluorChem 8900 imager and quantified by a densitometer using the Alpha Imager application program.
For in vivo delivery siRNA was incorporated into dioleoyl-sn-glycero-3-phosphocholine (DOPC). DOPC and siRNA were mixed in the presence of excess tertiary butanol at a ratio of 1:10 (w/w) siRNA/DOPC [Shaw L M. Methods Mol Biol 2005: 294:97-105]. Before in vivo administration, this preparation was hydrated with normal 0.9% saline in 100 μL for i.v injection per mouse. […]

As for `CCCCCCCCCOc1ccc2[nH]cc(CCN)c2c1` [5-NT, 5-nonylytryptamine], the tumor growth result is recorded as “significantly inhibits growth”.
